Assay results from US8084459B2, “Substituted quinazolinones for treating neurological conditions” (Prana Biotechnology Ltd, priority 2004, dated 2011).

Legend:
[1] = Assay 3(d) test compound cytotoxicity (MTS); assay type: cell-based; conditions: BL6Jx129sv, mouse, primary cortical neuronal cultures, cortical neurons; for viability at 4 days, 1 µM: read-out: Assay 3(d) Cytotoxicity (% viable at 1 uM); for viability at 4 days, 10 µM: read-out: Assay 3(d) Cytotoxicity (% viable at 10 uM)
Outline: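 E14 mouse (BL6Jx129sv) primary cortical neurons cultured 5 days, then exposed on day 6 to compound prediluted in Neurobasal/B27 without antioxidants, working solutions 2.5, 25, 250 uM, in triplicate for 4 days at 37 °C. Viability by MTS, 2 h at 37 °C, absorbance 560 nm.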

[2] = tested on: Aβ1-42 toxicity in neuronal cortical cells; assay: Assay 3(c) Aβ neurotoxicity and neuroprotection (MTS); assay type: cell-based, mouse; conditions: 20 uM Aβ1-42, cortical neurons, 4 days
Procedure: Primary Cortical Neuronal Cultures
Cortical cultures were prepared as previously described (White et al., 1998). Embryonic day 14 BL6Jx129sv mouse cortices were removed, dissected free of meninges and dissociated in 0.025% (wt/vol) trypsin. Dissociated cells were plated in 48 well culture plates at a density of 2×10^6 cells/mL in MEM with 25% (vol/vol) FCS and 5% (vol/vol) HS and incubated at 37° C., 2 hrs. Media was then replaced with Neurobasal media (Invitrogen Life Technologies) and B27 supplements (Invitrogen Life Technologies). Cultures were maintained at 37° C. in 5% CO2. Prior to experimentation, the culture medium was replaced with Neurobasal media and B27 minus antioxidants (Invitrogen Life Technologies).
(c) Assay for Aβ Neurotoxicity and Aβ Neuroprotection
Neuronal cortical cells were cultured for five days as per Assay 2. On day six the neurobasal (NB) media (Invitrogen Life Technologies) and B27 supplement (Invitrogen Life Technologies) were replaced with NB media and B27 supplement (no antioxidants). On day six, test compounds were individually added to the neuronal cell cultures:
(§1) The test compounds were dissolved in 100% DMSO to a concentration of 2.5 mM (10 mM if excess compound was weighed out per vial—then diluted to 2.5 mM). 2.5 mM stock solution was serially diluted 1 in 10 to give working solutions of 250 uM, 25 uM, 2.5 uM.
Aβ was initially dissolved in 20 mM NaOH to a concentration of 1 mM and sonicated for 5 minutes. The peptide was then diluted in H2O and 10×PBS to a final concentration of 200 uM Aβ in 1× PBS. The peptide was again sonicated for 5 minutes and then spun at 14000 rpm for 5 min and transferred to a fresh tube.
as §1, with “in 10 [in NB media and B27 (no antioxidants)] to give” for “in 10 to give”, “2.5 uM. Test compounds were not added directly to cells, instead they were added to a 48 well ‘Drug Plate’ as comprised below:” for “2.5 uM.”
Preparation of “Drug Plate”:
Well 1: 515 ul NB+B27 (no antioxidant)*+24 ul 25 uM test compound+60 ul Aβ diluent**
Well 2: 515 ul NB+B27 (no antioxidant)+24 ul 250 uM test compound+60 ul Aβ diluent
Well 3: 515 ul NB+B27 (no antioxidant)+24 ul test compound diluent***+60 ul Aβ1-42
Well 4: 515 ul NB+B27 (no antioxidant)+24 ul 2.5 uM test compound+60 ul Aβ1-42
Well 5: 515 ul NB+B27 (no antioxidant)+24 ul 25 uM test compound+60 ul Aβ1-42
Well 6: 515 ul NB+B27 (no antioxidant)+24 ul 250 uM test compound+60 ul Aβ1-42 diluent
Well 7: 515 ul NB+B27 (no antioxidant)+24 ul test compound diluent+60 ul Aβ1-42 diluent
Well 8: 600 ul NB+B27 (no antioxidant)
The Drug Plate was incubated at 37° C. for 15 mins. 200 ul of each well was added in triplicate to the corresponding cell plate. The cell plate was incubated at 37 C, for 4 days.
* NB media+B27 (no antioxidants)
** Aβ diluent 2 mM NaOH, 1×PBS
*** PBT diluent 10% DMSO in NB+B27 (no antioxidant)
On the 4th day after treating the cells the assay is completed by adding MTS to the cells.

Compound	viability at 4 days, 1 µM [1]	viability at 4 days, 10 µM [1]	Assay 3(c) Neuroprotection (% inhibition of Abeta toxicity) [2]
O=c1c2c(Cl)cc(Cl)c(O)c2ncn1CCN1CCCC1 [Compound 1075]	99%	87%	
O=c1c2c(Cl)cc(Cl)c(O)c2ncn1Cc1ccccn1 [Compound 1077]	101%	86%	
Cc1nc(Cn2cnc3c(O)c(Cl)cc(Cl)c3c2=O)cs1 [Compound 1084]	100%	93%	2%
Cc1noc(C)c1Cn1cnc2c(O)c(Cl)cc(Cl)c2c1=O [Compound 1085]	99%	72%	7%
Br.CCCn1cnc2c(O)c(Cl)cc(Cl)c2c1=O [Compound 1097]	99%	78%	
